ChEMBL document CHEMBL4043265, “Discovery of imidazo[1,2-a]-, [1,2,4]triazolo[4,3-a]-, and [1,2,4]triazolo[1,5-a]pyridine-8-carboxamide negative allosteric modulators of metabotropic glutamate receptor subtype 5” (Bioorg Med Chem Lett, 2017)
Calls of active or inactive are those of the source. The calls are words filed in the database; no cut-off is given here.

Experiments:
[1] = biological target: Metabotropic glutamate receptor 5 (Rattus norvegicus, UniProt P31424); assay: Negative allosteric modulation of rat mGlu5 receptor expressed in HEK293 cells assessed as inhibition of glutamate induced-calcium mobilization preincubated for 2.3 mins followed by glutamate addition measured after 1.7 mins by Fluo-4 AM dye based fluorescence assay; assay type: functional, cell-based
[2] = Cmax in rat at 10 mg/kg, po; assay type: ADME, organism-based; design: dose 10 mg/kg, route oral; settings: in vivo
[3] = AUC in rat at 10 mg/kg, po; assay type: ADME, organism-based; settings: in vivo
[4] = Tmax in rat at 10 mg/kg, po; assay type: ADME, organism-based; settings: in vivo
[5] = Plasma clearance in rat at 1 mg/kg, iv; assay type: ADME, organism-based
[6] = Volume of distribution at steady state in rat at 1 mg/kg, iv; assay type: ADME, organism-based; settings: in vivo, read-out: Vdss
[7] = Mean residence time in rat at 1 mg/kg, iv; assay type: ADME, organism-based; settings: in vivo
[8] = Half life in rat at 1 mg/kg, iv; assay type: ADME, organism-based; settings: in vivo
[9] = Brain to plasma partition coefficient, Kp of the compound in rat at 3 mg/kg, po; assay type: ADME, organism-based
[10] = Ratio of unbound brain to plasma concentration in rat at 3 mg/kg, po; assay type: ADME, organism-based
[11] = biological target: Metabotropic glutamate receptor 5 (Rattus norvegicus) (UniProt P31424); assay: Negative allosteric modulation of rat mGlu5 receptor expressed in HEK293 cells assessed as inhibition of glutamate induced-calcium mobilization at 30 uM preincubated for 2.3 mins followed by glutamate addition measured after 1.7 mins by Fluo-4 AM dye based fluorescence assay relative to glutamate; assay type: functional, cell-based
[12] = Apparent permeability of the compound across apical side to basolateral side in MDCK cells expressing MDR1 measured every 30 mins for 2 hrs; assay type: ADME, cell-based, Canis lupus familiaris; settings: dog
[13] = Apparent permeability of the compound across basolateral side to apical side in MDCK cells expressing MDR1 measured every 30 mins for 2 hrs; assay type: ADME, cell-based, Canis lupus familiaris; settings: dog
[14] = test system: Brain; assay: Fraction unbound in rat brain homogenates at 5 uM after 6 hrs by equilibrium dialysis method; assay type: ADME, tissue-based; settings: brain homogenate
[15] = Oral bioavailability in rat at 10 mg/kg; assay type: ADME, organism-based; settings: in vivo
[16] = test system: Mus musculus; assay: Anxiolytic-like activity in ip dosed Harlan CD-1 mouse marble burying model of OCD assessed as suppression of marble burying activity administered 15 mins prior to test measured over 30 mins; assay type: functional; settings: Harlan CD-1, ip, read-out: MED
[17] = biological target: Platelet-activating factor receptor (Homo sapiens) (UniProt P25105); assay: Displacement of [3H]PAF from human PAF at 10 uM after 3 hrs by scintillation counting method relative to control
[18] = biological target: Sodium-dependent dopamine transporter (Homo sapiens, UniProt Q01959); assay type: ADME, cell-based
[19] = biological target: T1, Cytochrome P450 1A2 (Homo sapiens, UniProt P05177)
T1 sequence (P05177 whole entry): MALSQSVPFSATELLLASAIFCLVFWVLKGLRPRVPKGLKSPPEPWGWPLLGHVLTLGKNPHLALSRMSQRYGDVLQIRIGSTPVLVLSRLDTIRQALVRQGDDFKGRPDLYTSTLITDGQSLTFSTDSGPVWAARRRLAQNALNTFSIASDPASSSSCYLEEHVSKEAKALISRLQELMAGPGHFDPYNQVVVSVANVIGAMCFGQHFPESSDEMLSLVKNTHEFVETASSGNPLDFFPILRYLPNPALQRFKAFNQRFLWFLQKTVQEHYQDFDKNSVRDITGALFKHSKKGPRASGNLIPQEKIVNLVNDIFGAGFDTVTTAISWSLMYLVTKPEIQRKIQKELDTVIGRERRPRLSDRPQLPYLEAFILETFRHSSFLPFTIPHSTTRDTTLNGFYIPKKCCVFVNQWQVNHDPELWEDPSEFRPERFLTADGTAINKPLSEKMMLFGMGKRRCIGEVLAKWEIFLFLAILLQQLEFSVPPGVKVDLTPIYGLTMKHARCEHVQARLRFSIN

[20] = biological target: Cytochrome P450 2C9 (Homo sapiens, UniProt P11712)
[21] = biological target: Cytochrome P450 2D6 (Homo sapiens, UniProt P10635)
[22] = biological target: Cytochrome P450 3A4 (Homo sapiens, UniProt P08684)
[23] = test system: Plasma; settings: rat, 4 h, 5 µM
[24] = test system: Plasma; settings: human, 4 h, 5 µM
[25] = biological target: T2, DAT (sodium-dependent dopamine transporter) (Homo sapiens, UniProt Q01959); assay: in vitro
[26] = biological target: T2, DAT (sodium-dependent dopamine transporter); assay: Inhibition of full-length recombinant human DAT expressed in CHOK1 cells assessed as reduction in [3H]dopamine uptake at 10 uM pretreated for 20 mins followed by [3H]dopamine addition measured after 10 mins by scintillation counting method relative to control; assay type: cell-based; settings: CHO-K1 cells expressing full-length recombinant human DAT, probe [3H]dopamine
[27] = test system: Mus musculus; assay: Anxiolytic-like activity in Harlan CD-1 mouse marble burying model of OCD assessed as suppression of marble burying activity at 10 mg/kg, ip administered 15 mins prior to test measured over 30 mins; assay type: functional, organism-based
[28] = CHO-K1 cells expressing recombinant human DAT, probe [125I]RTI-55

Metabotropic glutamate receptor 5, sequence (P31424 whole entry): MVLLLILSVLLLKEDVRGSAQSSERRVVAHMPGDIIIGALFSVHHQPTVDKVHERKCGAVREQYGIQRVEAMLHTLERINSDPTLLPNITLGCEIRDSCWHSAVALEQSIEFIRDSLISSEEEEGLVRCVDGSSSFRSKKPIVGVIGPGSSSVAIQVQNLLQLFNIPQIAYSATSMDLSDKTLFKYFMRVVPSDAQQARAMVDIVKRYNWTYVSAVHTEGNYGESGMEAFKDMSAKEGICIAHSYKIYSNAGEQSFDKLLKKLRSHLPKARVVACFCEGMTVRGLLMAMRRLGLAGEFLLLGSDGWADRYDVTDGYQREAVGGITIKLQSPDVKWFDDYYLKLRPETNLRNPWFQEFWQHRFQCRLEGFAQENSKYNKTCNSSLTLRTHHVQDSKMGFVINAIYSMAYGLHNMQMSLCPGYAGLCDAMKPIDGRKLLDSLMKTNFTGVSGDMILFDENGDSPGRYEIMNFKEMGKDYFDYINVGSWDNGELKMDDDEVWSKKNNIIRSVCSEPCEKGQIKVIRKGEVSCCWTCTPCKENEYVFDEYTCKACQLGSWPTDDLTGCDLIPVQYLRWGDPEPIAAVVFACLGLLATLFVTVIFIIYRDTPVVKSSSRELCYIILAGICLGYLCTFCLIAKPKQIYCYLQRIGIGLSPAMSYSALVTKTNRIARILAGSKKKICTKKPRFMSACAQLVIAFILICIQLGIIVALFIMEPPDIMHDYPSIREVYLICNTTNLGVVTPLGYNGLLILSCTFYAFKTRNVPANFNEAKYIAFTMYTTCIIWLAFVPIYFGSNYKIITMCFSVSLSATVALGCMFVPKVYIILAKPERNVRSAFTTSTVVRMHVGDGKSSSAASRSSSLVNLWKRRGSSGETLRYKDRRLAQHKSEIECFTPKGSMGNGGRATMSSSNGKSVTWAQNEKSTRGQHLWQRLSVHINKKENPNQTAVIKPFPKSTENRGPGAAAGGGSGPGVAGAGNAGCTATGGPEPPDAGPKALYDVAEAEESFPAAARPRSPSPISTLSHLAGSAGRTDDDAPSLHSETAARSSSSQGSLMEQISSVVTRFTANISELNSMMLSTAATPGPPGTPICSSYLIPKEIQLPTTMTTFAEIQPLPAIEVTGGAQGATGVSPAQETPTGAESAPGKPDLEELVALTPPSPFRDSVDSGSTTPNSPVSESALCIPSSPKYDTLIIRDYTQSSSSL
Cytochrome P450 2D6, sequence (P10635 whole entry): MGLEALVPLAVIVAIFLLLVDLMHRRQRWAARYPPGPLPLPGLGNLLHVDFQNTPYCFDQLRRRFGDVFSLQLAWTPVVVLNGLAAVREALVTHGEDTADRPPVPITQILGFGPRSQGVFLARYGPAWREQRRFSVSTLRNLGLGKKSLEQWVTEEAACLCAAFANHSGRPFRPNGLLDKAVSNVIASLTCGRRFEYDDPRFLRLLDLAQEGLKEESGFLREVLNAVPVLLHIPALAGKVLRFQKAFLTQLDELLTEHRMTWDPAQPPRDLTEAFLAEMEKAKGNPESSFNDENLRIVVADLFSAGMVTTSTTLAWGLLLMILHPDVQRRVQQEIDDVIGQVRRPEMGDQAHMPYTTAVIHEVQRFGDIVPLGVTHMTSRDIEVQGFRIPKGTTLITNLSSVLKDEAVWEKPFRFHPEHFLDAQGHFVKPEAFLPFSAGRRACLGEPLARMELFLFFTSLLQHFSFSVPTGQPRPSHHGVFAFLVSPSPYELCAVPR
T2 sequence (Q01959 whole entry): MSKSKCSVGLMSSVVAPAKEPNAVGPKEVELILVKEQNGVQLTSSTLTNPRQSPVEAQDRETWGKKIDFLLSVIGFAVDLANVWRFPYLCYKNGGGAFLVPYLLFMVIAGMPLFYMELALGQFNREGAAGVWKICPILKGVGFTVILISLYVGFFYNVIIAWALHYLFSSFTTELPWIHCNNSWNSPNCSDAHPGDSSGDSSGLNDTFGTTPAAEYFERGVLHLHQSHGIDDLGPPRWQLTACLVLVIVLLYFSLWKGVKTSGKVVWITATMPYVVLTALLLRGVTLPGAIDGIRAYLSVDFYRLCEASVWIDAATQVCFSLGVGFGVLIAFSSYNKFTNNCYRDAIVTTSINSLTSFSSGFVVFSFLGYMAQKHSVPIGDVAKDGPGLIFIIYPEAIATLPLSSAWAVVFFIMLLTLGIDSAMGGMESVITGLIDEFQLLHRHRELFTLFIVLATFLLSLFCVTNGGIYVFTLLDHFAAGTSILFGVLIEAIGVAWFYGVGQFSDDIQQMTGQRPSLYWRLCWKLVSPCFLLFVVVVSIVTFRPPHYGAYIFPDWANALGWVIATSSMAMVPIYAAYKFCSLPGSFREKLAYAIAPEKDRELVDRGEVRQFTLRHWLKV
Sodium-dependent dopamine transporter, sequence (Q01959 whole entry): as above
Metabotropic glutamate receptor 5 (Rattus norvegicus), sequence (P31424 21-1203 limits assumed): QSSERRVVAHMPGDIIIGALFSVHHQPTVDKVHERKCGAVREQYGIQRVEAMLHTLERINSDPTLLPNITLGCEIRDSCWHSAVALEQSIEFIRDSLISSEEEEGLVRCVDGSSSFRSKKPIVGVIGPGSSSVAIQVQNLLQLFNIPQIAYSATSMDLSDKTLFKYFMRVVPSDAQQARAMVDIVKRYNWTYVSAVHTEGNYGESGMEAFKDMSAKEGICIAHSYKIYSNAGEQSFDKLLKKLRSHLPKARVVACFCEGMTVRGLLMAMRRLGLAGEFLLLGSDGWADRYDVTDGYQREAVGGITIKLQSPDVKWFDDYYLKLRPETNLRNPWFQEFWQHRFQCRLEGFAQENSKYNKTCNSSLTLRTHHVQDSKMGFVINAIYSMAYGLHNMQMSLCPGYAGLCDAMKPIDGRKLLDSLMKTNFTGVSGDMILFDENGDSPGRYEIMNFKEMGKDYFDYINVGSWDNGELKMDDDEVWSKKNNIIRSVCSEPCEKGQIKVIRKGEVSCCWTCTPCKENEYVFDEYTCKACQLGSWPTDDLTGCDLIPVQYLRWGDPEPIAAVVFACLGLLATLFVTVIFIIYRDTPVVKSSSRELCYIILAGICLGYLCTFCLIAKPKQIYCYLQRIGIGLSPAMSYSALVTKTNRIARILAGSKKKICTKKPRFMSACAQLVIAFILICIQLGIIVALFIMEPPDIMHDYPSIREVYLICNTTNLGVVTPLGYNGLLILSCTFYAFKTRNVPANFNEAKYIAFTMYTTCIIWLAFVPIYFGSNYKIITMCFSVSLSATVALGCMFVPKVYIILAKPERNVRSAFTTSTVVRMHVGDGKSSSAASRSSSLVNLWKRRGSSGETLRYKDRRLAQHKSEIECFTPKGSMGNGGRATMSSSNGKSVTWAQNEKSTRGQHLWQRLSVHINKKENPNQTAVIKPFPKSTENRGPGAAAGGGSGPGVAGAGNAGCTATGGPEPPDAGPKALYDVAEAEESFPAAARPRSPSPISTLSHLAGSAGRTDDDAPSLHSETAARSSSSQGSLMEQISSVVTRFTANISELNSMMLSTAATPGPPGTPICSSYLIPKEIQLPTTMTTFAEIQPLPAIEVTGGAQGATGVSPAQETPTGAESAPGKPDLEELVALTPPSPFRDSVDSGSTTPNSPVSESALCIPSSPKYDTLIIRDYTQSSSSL
Cytochrome P450 3A4, sequence (P08684 whole entry): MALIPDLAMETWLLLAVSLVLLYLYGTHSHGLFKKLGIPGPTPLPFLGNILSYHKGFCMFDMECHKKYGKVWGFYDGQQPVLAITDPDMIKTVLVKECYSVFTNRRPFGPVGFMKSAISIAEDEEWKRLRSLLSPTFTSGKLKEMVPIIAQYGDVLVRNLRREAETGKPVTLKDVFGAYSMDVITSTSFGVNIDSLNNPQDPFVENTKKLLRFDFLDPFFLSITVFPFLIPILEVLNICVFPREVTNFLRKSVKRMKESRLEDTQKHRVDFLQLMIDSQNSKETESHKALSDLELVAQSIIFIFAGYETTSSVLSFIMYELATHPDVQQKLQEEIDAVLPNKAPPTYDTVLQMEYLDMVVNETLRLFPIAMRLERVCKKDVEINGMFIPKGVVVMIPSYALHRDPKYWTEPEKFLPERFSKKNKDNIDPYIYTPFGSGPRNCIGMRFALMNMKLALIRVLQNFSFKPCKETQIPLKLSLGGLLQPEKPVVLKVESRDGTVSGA
Cytochrome P450 2C9, sequence (P11712 whole entry): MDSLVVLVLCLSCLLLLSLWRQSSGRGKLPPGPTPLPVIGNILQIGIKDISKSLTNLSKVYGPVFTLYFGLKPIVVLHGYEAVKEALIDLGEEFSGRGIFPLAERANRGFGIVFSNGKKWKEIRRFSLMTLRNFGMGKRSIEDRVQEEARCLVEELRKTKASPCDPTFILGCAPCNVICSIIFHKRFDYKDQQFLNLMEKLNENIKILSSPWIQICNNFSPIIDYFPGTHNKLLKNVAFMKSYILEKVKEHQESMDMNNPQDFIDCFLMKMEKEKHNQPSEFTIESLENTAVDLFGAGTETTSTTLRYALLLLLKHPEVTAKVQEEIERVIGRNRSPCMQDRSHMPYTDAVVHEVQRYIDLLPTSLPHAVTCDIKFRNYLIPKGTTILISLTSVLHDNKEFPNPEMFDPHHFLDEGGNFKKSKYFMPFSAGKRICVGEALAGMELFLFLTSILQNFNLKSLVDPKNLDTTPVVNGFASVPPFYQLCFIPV
Platelet-activating factor receptor (Homo sapiens), sequence (P25105 whole entry): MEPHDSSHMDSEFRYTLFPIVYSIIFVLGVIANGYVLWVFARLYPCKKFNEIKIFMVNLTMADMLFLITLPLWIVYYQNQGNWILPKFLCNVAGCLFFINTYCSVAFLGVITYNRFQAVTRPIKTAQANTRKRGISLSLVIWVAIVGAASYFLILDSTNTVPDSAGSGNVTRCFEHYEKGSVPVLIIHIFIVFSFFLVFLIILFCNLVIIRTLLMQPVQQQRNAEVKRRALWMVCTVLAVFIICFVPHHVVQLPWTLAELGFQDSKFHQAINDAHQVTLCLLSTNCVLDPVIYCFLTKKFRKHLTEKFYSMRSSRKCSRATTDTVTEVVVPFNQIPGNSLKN

SMILES	IC50 [1] [nM]	%max [11] [%]	IC50 [19] [µM]	IC50 [20] [µM]	IC50 [21] [µM]	IC50 [22] [µM]	Fu [23]	Fu [24]	further results
O=C(Nc1ccc(F)cn1)c1cc(Oc2cncc(F)c2)cn2ncnc12	20	1.5	15.1	> 30	> 30	> 30	0.066	0.071	Cmax [2]: 673 nM; AUC [3]: 8.3 µM·h; Tmax [4]: 3 h; clearance [5]: 11 mL/min/kg; Vd [6]: 1.6 L/kg; MRT [7]: 2.38 h; half-life [8]: 81 min; Kp [9]: 1.4; K(p,uu,brain) [10]: 0.6; Papp [12]: 10 ×10⁻⁶ cm/s; Papp [13]: 13.1 ×10⁻⁶ cm/s; Fu [14]: 0.028; bioavailability [15]: 20%; minimal effective dose [16]: 3 mg/kg; inhibition [17]: 55%; IC50 [18]: 730 nM; inhibition at 3 h, 10 µM [25, 28]: 89%
O=C(Nc1cccc(F)n1)c1cc(Oc2cncc(F)c2)cn2ccnc12	38	1.5	0.6	1.6	24.8	2.3	0.023	0.026	
COc1ccc(NC(=O)c2cc(Oc3cncc(F)c3)cn3ccnc23)nc1	55	1.6	1.1	5.7	> 30	2	0.014	0.028	
O=C(Nc1ccc(F)cn1)c1cc(Oc2cncc(F)c2)cn2ccnc12	20	1.6	0.8	5.7	> 30	3.9	0.028	0.02	
O=C(Nc1ccc(F)cn1)c1cc(Oc2cc(F)cnc2F)cn2ncnc12	117	2.2							
O=C(Nc1ccc(F)cn1)c1cc(Oc2cncc(Cl)c2)cn2ncnc12	89	1.1							
O=C(Nc1ccc(F)cn1)c1cc(Oc2cncc(F)c2F)cn2ncnc12	41	2	4.1	> 30	> 30	> 30	0.066	0.067	inhibition at 3 h, 10 µM [25, 28]: 87%
Cc1nc2c(C(=O)Nc3ccc(F)cn3)cc(Oc3cncc(F)c3)cn2n1	1410	3.3							
O=C(Nc1ccc(F)cn1)c1cc(Oc2cncnc2)cn2ncnc12	74	1.5	9.9	> 30	> 30	> 30	0.168	0.313	IC50 [18]: > 10000 nM; inhibition at 10 min, 10 µM [26]: 42%; inhibition at 3 h, 10 µM [25, 28]: 60%
O=C(Nc1ccc(F)cn1)c1cc(Oc2cncc(OC(F)F)c2)cn2ncnc12	129	1.7							
Cc1nnc2c(C(=O)Nc3ccc(F)cn3)cc(Oc3cncc(F)c3)cn12	372	2.7							
O=C(Nc1ccc(F)cn1)c1cc(Oc2cncc(F)c2)cn2cnnc12	27	2.3	4.3	> 30	> 30	17.8	0.051	0.1	Cmax [2]: 573 nM; AUC [3]: 5.67 µM·h; Tmax [4]: 3 h; clearance [5]: 14 mL/min/kg; Vd [6]: 1.6 L/kg; MRT [7]: 1.97 h; half-life [8]: 79 min; Kp [9]: 1.7; K(p,uu,brain) [10]: 2.1; Papp [12]: 4.7 ×10⁻⁶ cm/s; Papp [13]: 11.1 ×10⁻⁶ cm/s; Fu [14]: 0.065; bioavailability [15]: 17%; minimal effective dose [16]: 3 mg/kg; inhibition at 3 h, 10 µM [25, 28]: 91%
Cc1ccc(NC(=O)c2cc(Oc3cncc(F)c3)cn3ccnc23)nc1	74	1.4	0.8	6.9	> 30	1.9	0.005	0.016	
Cc1cc(Oc2cncnc2)cc(C(=O)Nc2ccc(F)cn2)n1									Activity [27]: Active
O=C(Nc1ccc(F)cn1)c1cc(Oc2cncnc2)cn2cnnc12	324	1.6							
O=C(Nc1ccc(F)cn1)c1cc(Oc2cnc(F)c(F)c2)cn2ncnc12	56	1.6	> 30	> 30	> 30	23	0.023	0.031	IC50 [18]: 2870 nM; inhibition at 3 h, 10 µM [25]: 67%
